Patent publication EP1166782A2, “Anti-retroviral pharmaceutical compositions” (Yang, Chi-Chiang, priority 2000, dated 2002)
Like-named read-outs stand apart in the source and are kept apart here.

Columns and labels:
cells = test: Cellular activities in microculture tetrazolium (MTT) tests; type: cell-based
Protocol: The cellular activities were tested according to method as described in Alley M.C. et al, Cancer Res. 1988; 48(3):589-601. The principle of the method resides in that live cells can reduce MTT., i.e., 3-[4,5-dimethylthiazol-2-yl]-2,5-diphenyltetrazolium bromide)(tetrazolium salt) to formazan crystal through the dehydrogenase metabolism in Mitochondria. The crystal was dissolved in propanol and OD values were determined at 570 nm. The OD values can indicate the numbers of the live cells. The growth conditions of the cells were observed firstly. The cells were diluted to 2x10^4 cells/ml. 100µl sample taken by micropipet was placed in a 96-well plate. The plate was cultured for 24 hours as 37°C and 100µl of the compounds to be tested, which were prepared in medium, were added in each well. […] After culture for 4 hours, supernatant liquid was absorbed and 100 µl DMSO and 10µl /well was added. Each well was homogeneously mixed. The absorbance was determined at 570 nm.

[1] = test system: macrophage-tropic (NL-43); test: P24 quantification (P24 EIA) in infected PBMCs, NL-43; type: cell-based, HIV-1; conditions: PBMC; for concentrations of the viral P24 antigen, NL43(+): (+) original concentration of compound maintained after washing; for concentrations of the viral P24 antigen, NL43(-): (-) compound removed after washing
Protocol: (§1) PBMCs were treated with various concentrations of CAPE, MC and PEDMC provided in Example 2 and simultaneously infected with […] and macrophage and T cells dual tropic (89.6) HIV-1 isolates. The next day, the added compounds were removed by washing methods or maintained at the same concentration. Samples were divided into two groups and the upernatants of the culture medium were collected at the 3 and 7 days after infection, respectively. The use of P24 EIA Reagent Kit of Abbott Laboratory compares the concentrations of viral P24 antigen with or without the compounds tested.

T cells-tropic (JRCSF) = test: P24 quantification (P24 EIA) in infected PBMCs, JRCSF; type: cell-based, HIV-1; conditions: PBMC; for concentrations of the viral P24 antigen, JRCSF(+): (+) original concentration of compound maintained after washing; for concentrations of the viral P24 antigen, JRCSF(-): (-) compound removed after washing
Protocol: as §1

[2] = test system: macrophage and T cells dual tropic (89.6); test: P24 quantification (P24 EIA) in infected PBMCs, 89.6; type: cell-based, HIV-1; conditions: PBMC; for concentrations of the viral P24 antigen, 89.6(+): (+) original concentration of compound maintained after washing; for concentrations of the viral P24 antigen, 89.6(-): (-) compound removed after washing
Protocol: as §1

[3] = test system: various HIV isolates (NL-43, JRCSF or 89.6); test: P24 quantification, summary statements over all isolates; type: cell-based, HIV-1
Protocol: as §1

[4] = test system: Peripheral Blood Mononuclear Cells (PBMC); conditions: for The numbers of dead cells in 400 cells' count / % viability: 48 hours; for The numbers of dead cells in 400 cells' count: control 9 dead cells; for % viability: viable cells versus control (391);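 on all read-outs here: trypan blue dye exclusion, cells stained and counted from quadruplicate dishes, DMSO vehicle kept under 0.5%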
Protocol: Viability of the cells was assayed by the trypan blue dye exclusion method. […] The concentration of DMSO was adjusted to be less than 0.5%. Cells from quadruplicated dishes were washed once with Hank's Balanced Salt Solution (HBSS). According to the process, the floating dead cells will be separated from the live monolayer cells. Then the cells were stained with trypan blue and counted. The total number of viable cells in the control group was considered as 100% viability and the agent-treated cells were compared with the control group for the determination of % viability. The % viability of agent-treated cells was calculated from the total number of viable cells in the control group and in the agent-treated group.

SMILES: O=C(/C=C/c1ccc(O)c(O)c1)OCCc1ccccc1 [CAPE, caffeic acid phenethyl ester]
- MTT 24h, cellular activities (cells; 0.1 µM): 97.49 relative percentage
- MTT 48h, cellular activities (cells; 0.1 µM): 87.49 relative percentage
- MTT 24h, cellular activities (cells; 0.5 µM): 104.67 relative percentage
- MTT 48h, cellular activities (cells; 0.5 µM): 97.54 relative percentage
- MTT 24h, cellular activities (cells; 1 µM): 109.25 relative percentage
- MTT 48h, cellular activities (cells; 1 µM): 104.18 relative percentage
- MTT 24h, cellular activities (cells; 5 µM): 102.41 relative percentage
- MTT 48h, cellular activities (cells; 5 µM): 99.74 relative percentage
- MTT 24h, cellular activities (cells; 10 µM): 93.07 relative percentage
- MTT 48h, cellular activities (cells; 10 µM): 94.76 relative percentage
- MTT 24h, cellular activities (cells; 25 µM): 98.65 relative percentage
- MTT 48h, cellular activities (cells; 25 µM): 96.92 relative percentage
- MTT 24h, cellular activities (cells; 50 µM): 95.49 relative percentage
- MTT 48h, cellular activities (cells; 50 µM): 96.42 relative percentage
- MTT 24h, cellular activities (cells; 100 µM): 96.15 relative percentage
- MTT 48h, cellular activities (cells; 100 µM): 94.02 relative percentage
- MTT 24h, cellular activities (cells; 200 µM): 106.8 relative percentage
- MTT 48h, cellular activities (cells; 200 µM): 98.6 relative percentage
- MTT 24h, cellular activities (cells; 400 µM): 108.62 relative percentage
- MTT 48h, cellular activities (cells; 400 µM): 98.9 relative percentage
- cellular activities in MTT tests (result in words) (cells; Figures 1 and 2, 24 and 48 hours): no substantial effects
- concentrations of the viral P24 antigen, NL43(+) ([1]; 0.1 µM): 1000 unit
- concentrations of the viral P24 antigen, NL43(-) ([1]; 0.1 µM): 1000 unit
- concentrations of the viral P24 antigen, NL43(+) ([1]; 0.5 µM): 1000 unit
- concentrations of the viral P24 antigen, NL43(-) ([1]; 0.5 µM): 1000 unit
- concentrations of the viral P24 antigen, NL43(+) ([1]; 1 µM): 1000 unit
- concentrations of the viral P24 antigen, NL43(-) ([1]; 1 µM): 1000 unit
- concentrations of the viral P24 antigen, NL43(+) ([1]; 5 µM): 1000 unit
- concentrations of the viral P24 antigen, NL43(-) ([1]; 5 µM): 1000 unit
- concentrations of the viral P24 antigen, NL43(+) ([1]; 10 µM): 990.64 unit
- concentrations of the viral P24 antigen, NL43(-) ([1]; 10 µM): 1000 unit
- concentrations of the viral P24 antigen, NL43(+) ([1]; 25 µM): 975.64 unit
- concentrations of the viral P24 antigen, NL43(-) ([1]; 25 µM): 988.28 unit
- concentrations of the viral P24 antigen, NL43(+) ([1]; 50 µM): 166.12 unit
- concentrations of the viral P24 antigen, NL43(-) ([1]; 50 µM): 865.44 unit
- concentrations of the viral P24 antigen, NL43(+) ([1]; 100 µM): 0 unit
- concentrations of the viral P24 antigen, NL43(-) ([1]; 100 µM): 62.26 unit
- concentrations of the viral P24 antigen, NL43(+) ([1]; 200 µM): 0 unit
- concentrations of the viral P24 antigen, NL43(-) ([1]; 200 µM): 0 unit
- concentrations of the viral P24 antigen, NL43(+) ([1]; 400 µM): 0 unit
- concentrations of the viral P24 antigen, NL43(-) ([1]; 400 µM): 0 unit
- concentrations of the viral P24 antigen, JRCSF(+) (T cells-tropic (JRCSF); 0.1 µM): 1000 unit
- concentrations of the viral P24 antigen, JRCSF(-) (T cells-tropic (JRCSF); 0.1 µM): 1000 unit
- concentrations of the viral P24 antigen, JRCSF(+) (T cells-tropic (JRCSF); 0.5 µM): 1000 unit
- concentrations of the viral P24 antigen, JRCSF(-) (T cells-tropic (JRCSF); 0.5 µM): 1000 unit
- concentrations of the viral P24 antigen, JRCSF(+) (T cells-tropic (JRCSF); 1 µM): 1000 unit
- concentrations of the viral P24 antigen, JRCSF(-) (T cells-tropic (JRCSF); 1 µM): 1000 unit
- concentrations of the viral P24 antigen, JRCSF(+) (T cells-tropic (JRCSF); 5 µM): 965.62 unit
- concentrations of the viral P24 antigen, JRCSF(-) (T cells-tropic (JRCSF); 5 µM): 1000 unit
- concentrations of the viral P24 antigen, JRCSF(+) (T cells-tropic (JRCSF); 10 µM): 642.72 unit
- concentrations of the viral P24 antigen, JRCSF(-) (T cells-tropic (JRCSF); 10 µM): 34.42 unit
- concentrations of the viral P24 antigen, JRCSF(+) (T cells-tropic (JRCSF); 25 µM): 0 unit
- concentrations of the viral P24 antigen, JRCSF(-) (T cells-tropic (JRCSF); 25 µM): 0 unit
- concentrations of the viral P24 antigen, JRCSF(+) (T cells-tropic (JRCSF); 50 µM): 0 unit
- concentrations of the viral P24 antigen, JRCSF(-) (T cells-tropic (JRCSF); 50 µM): 0 unit
- concentrations of the viral P24 antigen, JRCSF(+) (T cells-tropic (JRCSF); 100 µM): 0 unit
- concentrations of the viral P24 antigen, JRCSF(-) (T cells-tropic (JRCSF); 100 µM): 0 unit
- concentrations of the viral P24 antigen, JRCSF(+) (T cells-tropic (JRCSF); 200 µM): 0 unit
- concentrations of the viral P24 antigen, JRCSF(-) (T cells-tropic (JRCSF); 200 µM): 0 unit
- concentrations of the viral P24 antigen, JRCSF(+) (T cells-tropic (JRCSF); 400 µM): 0 unit
- concentrations of the viral P24 antigen, JRCSF(-) (T cells-tropic (JRCSF); 400 µM): 0 unit
- concentrations of the viral P24 antigen, 89.6(+) ([2]; 0.1 µM): 1000 unit
- concentrations of the viral P24 antigen, 89.6(-) ([2]; 0.1 µM): 1000 unit
- concentrations of the viral P24 antigen, 89.6(+) ([2]; 0.5 µM): 899.22 unit
- concentrations of the viral P24 antigen, 89.6(-) ([2]; 0.5 µM): 949.75 unit
- concentrations of the viral P24 antigen, 89.6(+) ([2]; 1 µM): 643.71 unit
- concentrations of the viral P24 antigen, 89.6(-) ([2]; 1 µM): 1000 unit
- concentrations of the viral P24 antigen, 89.6(+) ([2]; 5 µM): 243.87 unit
- concentrations of the viral P24 antigen, 89.6(-) ([2]; 5 µM): 280.51 unit
- concentrations of the viral P24 antigen, 89.6(+) ([2]; 10 µM): 230.32 unit
- concentrations of the viral P24 antigen, 89.6(-) ([2]; 10 µM): 255.21 unit
- concentrations of the viral P24 antigen, 89.6(+) ([2]; 25 µM): 0 unit
- concentrations of the viral P24 antigen, 89.6(-) ([2]; 25 µM): 182.44 unit
- concentrations of the viral P24 antigen, 89.6(+) ([2]; 50 µM): 0 unit
- concentrations of the viral P24 antigen, 89.6(-) ([2]; 50 µM): 243.53 unit
- concentrations of the viral P24 antigen, 89.6(+) ([2]; 100 µM): 0 unit
- concentrations of the viral P24 antigen, 89.6(-) ([2]; 100 µM): 113.2 unit
- concentrations of the viral P24 antigen, 89.6(+) ([2]; 200 µM): 0 unit
- concentrations of the viral P24 antigen, 89.6(-) ([2]; 200 µM): 0 unit
- concentrations of the viral P24 antigen, 89.6(+) ([2]; 400 µM): 0 unit
- concentrations of the viral P24 antigen, 89.6(-) ([2]; 400 µM): 0 unit
- viral replications (result in words) ([3]; Figures 3-5, PBMC infected with NL-43, JRCSF or 89.6): significantly inhibited viral replications
- inhibit viral replication ([3]; at the concentration of 100 µM or less, various HIV isolates): 100%
- The numbers of dead cells in 400 cells' count ([4]; 0.1 µM): 11
- % viability ([4]; 0.1 µM): 389/391 (99.5%)
- The numbers of dead cells in 400 cells' count ([4]; 0.5 µM): 9
- % viability ([4]; 0.5 µM): 391/391 (100%)
- The numbers of dead cells in 400 cells' count ([4]; 1 µM): 7
- % viability ([4]; 1 µM): 393/391 (100.5%)
- The numbers of dead cells in 400 cells' count ([4]; 5 µM): 10
- % viability ([4]; 5 µM): 390/391 (99.7%)
- The numbers of dead cells in 400 cells' count ([4]; 10 µM): 10
- % viability ([4]; 10 µM): 390/391 (99.7%)
- The numbers of dead cells in 400 cells' count ([4]; 25 µM): 5
- % viability ([4]; 25 µM): 395/391 (101%)
- The numbers of dead cells in 400 cells' count ([4]; 50 µM): 12
- % viability ([4]; 50 µM): 388/391 (99.2%)
- The numbers of dead cells in 400 cells' count ([4]; 100 µM): 11
- % viability ([4]; 100 µM): 389/391 (99.5%)
- The numbers of dead cells in 400 cells' count ([4]; 200 µM): 7
- % viability ([4]; 200 µM): 393/391 (100.5%)
- The numbers of dead cells in 400 cells' count ([4]; 400 µM): 8
- % viability ([4]; 400 µM): 392/391 (100.3%)
- viabilities of PBMC under high-dose versus low-dose treatments (result in words) ([4]; high dose up to 400 µM compared with 0.1-10 µM): no substantial differences
